Results on 33 compounds are retold here after patent US9682059B2 (priority 2013, dated 2017).

Series [1] concerns Lithium-pilocarpine induced status epilepticus. In words: animal or person. Type of series: in vivo. Conditions: Rattus norvegicus, ip, 1.5 h, read-out: Protection %.
The test system is the same in series [2]. In words: animal or person. Type of series: in vivo, rat. Conditions: for Protection %: rat, in vivo; for responders at 46 mg/kg: Rattus norvegicus, iv, read-out: Protection %.
Series [3] concerns PTZ-induced clonic seizure. Kind of series: animal or person. Type of series: in vivo, mice. Conditions: Mus musculus, ip; for responders at 20.4 mg/kg: read-out: Protection %; for ED50: read-out: PTZ test ED50.
Series [4] deals with PTZ-induced clonic seizure. In words: animal or person. Format: in vivo, rats. Conditions: Rattus norvegicus, ip.
The subject of a further series is neurotoxicity (rotarod). In words: Neurotoxicity (rotarod). Format: in vivo. Conditions: mice, protective index. The protocol: The measurement of neurotoxicity of the test compounds was conducted by the method of Dunham and Miya [Dunham, N. W. and Miya, T. S. 1957. A note on a simple apparatus for detecting neurological deficit in rats and mice. J. Am. Pharm. Assoc. (Baltimore) 46: 208-209]. In the method, motor abilities of the test animals can be determined by observing whether the test animals can walk without falling from a rotator, thereby determining the value of neurotoxicity of each compound. […] They were pre-trained on the rotarod (Rotarod; Columbus instrument, rota-max, USA) at 6 rpm for 5 min 24 hr prior to the test. The peak time was determined by administration test material's random dose for 0.5, 1, 2, 4 hour. […] The ratio of TD50 to ED50(TD50/ED50) is called as a protective index, and useful as a parameter for comparison of pharmaceutical efficacy and neurotoxicity.

The test system of a further series is 6 Hz-induced seizure. Kind of series: animal or person. Type of series: in vivo, mice. Conditions: ip.
Series [5] deals with lamotrigene-resistant amygdala kindled rat. In words: animal or person. Conditions: ip. Format: in vivo.
The subject of series [6] is benzodiazepine-resistant status epilepticus. In words: animal or person. Format: in vivo. Conditions: Rattus norvegicus, ip, 10 min.
Series [7] has as its system maximal electroshock seizure. In words: animal or person. Type of series: in vivo, mice.

Read-outs that look alike come from different tables or passages of the source.

With `C[C@H](OC(=O)NC1CC1)[C@@H](O)c1ccccc1Cl` (single isomer, unassigned) [Compound 25], in series [1], the responders at 60 mg/kg was found to be 100%. The Protection % result in series [2] was “^a46 (100%)”. Moreover, the responders at 20.4 mg/kg in series [3] was found to be 66.7%.
For the compound `CC[C@H](OC(N)=O)[C@@H](O)c1ccccc1Cl` [Compound 6, 1-(2-chlorophenyl)-(S)-1-hydroxybutyl-(S)-2-carbamate], in [4] (read-out: Protection %), the responders at 30 mg/kg amounted to 50%. Moreover, the responders at 46 mg/kg in series [2] was 100%. Besides, in [3], the ED50 was determined as 17.9 mg/kg.
The matching figures for `C[C@@H](OC(N)=O)[C@@H](O)c1ccccc1Cl` [Compound 4, 1-(2-chlorophenyl)-(S)-1-hydroxypropyl-(R)-2-carbamate]: 50%, 100% and 26.7 mg/kg.
In the case of `CNC(=O)O[C@H](C)[C@H](O)c1ccccc1Cl` (racemic) [Compound 29, 1-(2-chlorophenyl)-1-hydroxypropyl-2-N-methylcarbamate], the responders at 20.4 mg/kg in series [3] was 33.3%.
Take `CC(OC(N)=O)C(O)c1ccccc1Cl` (racemic) [Compound 3, 1-(2-chlorophenyl)-1-hydroxypropyl-2-carbamate]: the “PI(TD50/ED50 in MES)” value in the series on neurotoxicity (rotarod) came to 12.0.
Take `CNC(=O)O[C@@H](C)[C@@H](O)c1ccccc1Cl` [Compound 15, 1-(2-chlorophenyl)-(S)-1-hydroxypropyl-(S)-2-N-methylcarbamate]: the responders at 25 mg/kg in series [4] (read-out: Protection %) came to 33.3%. Further, the responders at 46 mg/kg in series [2] was determined as 100%.
`C[C@H](OC(=O)NC1CC1)[C@@H](O)c1ccccc1Cl` [Compound 18, 1-(2-chlorophenyl)-(S)-1-hydroxypropyl-(R)-2-N-cyclopropylcarbamate]: the responders at 30 mg/kg in series [4] (read-out: Protection %) is 16.7%. The Protection % entry in series [2] is reported as “^a46 (66.7%)”.
For `C[C@H](OC(N)=O)[C@H](O)c1ccccc1Cl` [Compound 5, 1-(2-chlorophenyl)-(R)-1-hydroxypropyl-(S)-2-carbamate], in the series with neurotoxicity (rotarod), the “PI(TD50/ED50 in MES)” value was 3.3.
For the compound `C[C@H](OC(N)=O)[C@@H](O)c1ccccc1Cl` [Compound 1, 1-(2-chlorophenyl)-(S)-1-hydroxypropyl-(S)-2-carbamate], the ED50 in the series with 6 Hz-induced seizure (Mus musculus) was determined as 14.6 mg/kg; with 6 Hz-induced seizure (mouse, in vivo), 13.66 mg/kg; in [5] (Rattus norvegicus), 17 mg/kg; in [6], 96.9 mg/kg. Besides, in [5] (rat, in vivo), the “Seizure Score” value is given as 2.0 ± 0.7(Control: 5.0 ± 0.0). In addition, the “PI(TD50/ED50 in MES)” value in the series on neurotoxicity (rotarod) was determined as 16.8.
For `C[C@H](OC(N)=O)[C@@H](O)c1ccccc1F` [Compound 63, 1-(2-fluorophenyl)-(S)-1-hydroxypropyl-(S)-2-carbamate], in [2], the responders at 46 mg/kg came out at 50%. Moreover, the responders at 20.4 mg/kg in [3] is 50%.
As for `CCCNC(=O)O[C@@H](C)[C@@H](O)c1ccccc1Cl` [Compound 23, 1-(2-chlorophenyl)-(R)-1-hydroxypropyl-(R)-2-N-propylcarbamate], in series [3], the responders at 20.4 mg/kg is 50%.
As to `CCCNC(=O)O[C@H](C)[C@H](O)c1ccccc1Cl` (racemic) [Compound 30, 1-(2-chlorophenyl)-1-hydroxypropyl-2-N-propylcarbamate], in [7] (mouse, in vivo), the Protection % is listed as 200 ^a(25%). Besides, the responders at 20.4 mg/kg in series [3] was found to be 33.3%.
In the case of `C[C@H](OC(N)=O)[C@@H](O)c1c(Cl)cccc1Cl` [Compound 37, 1-(2,6-dichlorophenyl)-(S)-1-hydroxypropyl-(S)-2-carbamate], the responders at 30 mg/kg in [4] (read-out: Protection %) is 50%. Moreover, in [2], the responders at 46 mg/kg turned out to be 100%. In addition, the ED50 in series [3] was 25.7 mg/kg. The “PI(TD50/ED50 in MES)” value in the series with neurotoxicity (rotarod) came to 5.1.
As to `CCCNC(=O)O[C@@H](C)[C@@H](O)c1ccccc1Cl` [Compound 16, 1-(2-chlorophenyl)-(S)-1-hydroxypropyl-(S)-2-N-propylcarbamate], the responders at 30 mg/kg in series [4] (read-out: Protection %) amounted to 33.3%. Also, the responders at 46 mg/kg in series [2] worked out at 100%.
With `CC(C)[C@H](OC(N)=O)[C@@H](O)c1ccccc1Cl` [Compound 9, 1-(2-chlorophenyl)-(8)-1-hydroxy-3-methyl-butyl-(8)-2-carbamate], the responders at 20.4 mg/kg in series [3] amounted to 33.3%.
On to `C[C@H](OC(N)=O)[C@@H](O)c1ccccc1I` [Compound 65, 1-(2-iodophenyl)-(S)-1-hydroxypropyl-(S)-2-carbamate], for which, in series [2], the responders at 46 mg/kg was 100%. In addition, in series [3], the responders at 20.4 mg/kg turned out to be 100%.
In the case of `CC[C@H](OC(N)=O)[C@@H](O)c1c(Cl)cccc1Cl` [Compound 40, 1-(2,6-dichlorophenyl)-(S)-1-hydroxybutyl-(S)-2-carbamate], in series [2], the responders at 46 mg/kg worked out at 100%. Further, in [3], the responders at 20.4 mg/kg was found to be 33.3%.
The matching figures for `CC(C)NC(=O)O[C@H](C)[C@H](O)c1ccccc1Cl` (racemic) [Compound 31, 1-(2-chlorophenyl)-1-hydroxypropyl-2-N-isopropylcarbamate]: 100% and 83.3%.
`CC[C@H](OC(N)=O)[C@@H](O)c1ccccc1I` [Compound 67, 1-(2-iodophenyl)-(S)-1-hydroxybutyl-(S)-2-carbamate]: in series [4] (read-out: Protection %), the responders at 30 mg/kg worked out at 33.3%. Moreover, the responders at 46 mg/kg in series [2] came out at 100%. Also, the ED50 in series [3] amounted to 23.1 mg/kg.
For the compound `C[C@H](OC(N)=O)[C@@H](O)c1ccc(Cl)cc1Cl` [Compound 36, 1-(2,4-dichlorophenyl)-(S)-1-hydroxypropyl-(S)-2-carbamate], the responders at 20.4 mg/kg in series [3] stood at 33.3%.
Turning to `CCC(OC(N)=O)C(O)c1ccccc1Cl` (racemic) [Compound 8, 1-(2-chlorophenyl)-1-hydroxybutyl-2-carbamate], the responders at 46 mg/kg in series [2] came to 50%. Also, the responders at 20.4 mg/kg in series [3] was determined as 50%.
`CCCCC(OC(N)=O)C(O)c1ccccc1Cl` (racemic) [Compound 14, 1-(2-chlorophenyl)-1-hydroxyhexyl-2-carbamate]: the responders at 20.4 mg/kg in series [3] turned out to be 16.7%.
Regarding `CCCC[C@@H](OC(N)=O)[C@H](O)c1ccccc1Cl` [Compound 13, 1-(2-chlorophenyl)-(R)-1-hydroxyhexyl-(R)-2-carbamate], the responders at 20.4 mg/kg in [3] came to 50%.
In the case of `C[C@@H](OC(=O)NC1CC1)[C@H](O)c1ccccc1Cl` (racemic) [Compound 32, 1-(2-chlorophenyl)-1-hydroxypropyl-2-N-cyclopropylcarbamate], in series [2], the responders at 46 mg/kg came out at 100%. In addition, in [7] (Mus musculus, po, read-out: Protection %), the responders at 200 mg/kg was 100%. In addition, the responders at 20.4 mg/kg in [3] came out at 16.7%.
Take `CC[C@H](OC(N)=O)[C@@H](O)c1ccc(Cl)cc1Cl` [Compound 39, 1-(2,4-dichlorophenyl)-(S)-1-hydroxybutyl-(S)-2-carbamate]: the ED50 in series [3] was 24.3 mg/kg.
On to `C[C@@H](OC(N)=O)[C@H](O)c1c(Cl)cccc1Cl` [Compound 46, 1-(2,6-dichlorophenyl)-(R)-1-hydroxypropyl-(R)-2-carbamate], for which the responders at 46 mg/kg in series [2] was 50%. The responders at 20.4 mg/kg in [3] stood at 50%.
For the compound `CCCC[C@H](OC(N)=O)[C@@H](O)c1ccccc1Cl` [Compound 12, 1-(2-chlorophenyl)-(S)-1-hydroxyhexyl-(S)-2-carbamate], the responders at 20.4 mg/kg in series [3] was 33.3%.
The same measure, in the same setting: under `CCCC[C@H](OC(N)=O)[C@@H](O)c1c(Cl)cccc1Cl` [Compound 44, 1-(2,6-dichlorophenyl)-(S)-1-hydroxyhexyl-(S)-2-carbamate] stands 33.3%.
As for `C[C@H](OC(N)=O)[C@@H](O)c1cccc(Cl)c1Cl` [Compound 38, 1-(2,3-dichlorophenyl)-(S)-1-hydroxypropyl-(S)-2-carbamate], the responders at 46 mg/kg in [2] amounted to 50%. Further, the responders at 20.4 mg/kg in series [3] turned out to be 50%.
With `C[C@@H](OC(N)=O)[C@H](O)c1ccc(Cl)cc1Cl` [Compound 45, 1-(2,4-dichlorophenyl)-(R)-1-hydroxypropyl-(R)-2-carbamate], the responders at 50 mg/kg in series [4] (read-out: Protection %) is 16.7%. The responders at 46 mg/kg in [2] is 33.3%. In series [3], the responders at 20.4 mg/kg is 16.7%.
`CCCC[C@H](OC(N)=O)[C@@H](O)c1ccc(Cl)cc1Cl` [Compound 43, 1-(2,4-dichlorophenyl)-(S)-1-hydroxyhexyl-(S)-2-carbamate]: the responders at 25 mg/kg in series [4] (read-out: Protection %) was found to be 33.3%.
As to `C[C@@H](OC(N)=O)[C@H](O)c1ccccc1Cl` [Compound 2, 1-(2-chlorophenyl)-(R)-1-hydroxypropyl-(R)-2-carbamate], the ED50 in series [4] (read-out: PTZ test ED50) was determined as 51.9 mg/kg. Moreover, the responders at 46 mg/kg in series [2] was 50%. In the series on neurotoxicity (rotarod), the “PI(TD50/ED50 in MES)” value is 7.3.
On to `CC(C)[C@H](OC(N)=O)[C@@H](O)c1c(Cl)cccc1Cl` [Compound 42, 1-(2,6-dichlorophenyl)-(S)-1-hydroxy-3-methyl-butyl-(S)-2-carbamate], for which, in series [3], the responders at 20.4 mg/kg was 50%.
